# Assay results: PubChem BioAssay (NCI)
#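 Growth conditions: 96-well plates. Treatment: test compound, 48 hours, 5 concentrations. Analysis: linear interpolation between bracketing concentrations; unreached endpoints set to highest concentration. GI50 marks 50% less growth. TGI: concentration producing complete growth inhibition.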
# Assays:
# Test in all cases: NCI anticancer screen, dose series, 48 h
# SR leukemia = test system: SR leukemia
# HCT-116 colon = test system: HCT-116 colon
# SNB-19 CNS = test system: SNB-19 CNS
# UO-31 renal = test system: UO-31 renal
# M14 melanoma = test system: M14 melanoma
# SK-MEL-2 melanoma = test system: SK-MEL-2 melanoma
# RPMI-8226 leukemia = test system: RPMI-8226 leukemia
# MDA-MB-435 = test system: MDA-MB-435
# PC-3 prostate = test system: PC-3 prostate
# HL-60(TB) leukemia = test system: HL-60(TB) leukemia
SMILES,TGI (SR leukemia) [µM],TGI (HCT-116 colon) [µM],TGI (SNB-19 CNS) [µM],TGI (UO-31 renal) [µM],TGI (M14 melanoma) [µM],TGI (SK-MEL-2 melanoma) [µM],TGI (RPMI-8226 leukemia) [µM],GI50 (HCT-116 colon) [µM],GI50 (SNB-19 CNS) [µM],GI50 (UO-31 renal) [µM],GI50 (M14 melanoma) [µM],GI50 (SK-MEL-2 melanoma) [µM],GI50 (MDA-MB-435) [µM],TGI (MDA-MB-435) [µM],GI50 (RPMI-8226 leukemia) [µM],GI50 (PC-3 prostate) [µM],TGI (PC-3 prostate) [µM],TGI (HL-60(TB) leukemia) [µM],GI50 (HL-60(TB) leukemia) [µM]
CC(=O)OC1CCn2nnc(COC(=O)NC(C)C)c21 (stereo not drawn),> 100,> 100,> 100,> 100,> 100,> 100,> 100,,,,,,,,,,,,
COc1ccc2c(c1)CC[C@@H]1[C@@H]2CC[C@@]2(C)[C@H]1CC1(CCCCC1)[C@@H]2O,,26.4,40.7,47.2,31.4,41.6,9.35,12.3,18,16.8,13.8,20.4,16.5,33.8,2.81,7.93,21.7,,
CC(=O)O[C@@H]1CO[C@H]2O[C@H]3[C@@H](C(C=O)=C[C@H](O)[C@@H]4C5=C(C(C)C)CC[C@]5(C)CC[C@@]34C)[C@@]2(O)C1=O,,0.27,1.97,0.598,0.723,0.596,1.6,,,,,,,0.393,,,0.368,,
CCCNCc1nc2ccc(Br)cc2c(=O)n1CCC,> 100,21.5,30.5,29.8,27.4,25.2,> 100,,,,,,,,,,,30.8,
Cc1c(C(=O)/C=C/c2ccc(Cl)cc2)[n+](=O)c2ccccc2n1[O-],73.1,18.5,27.8,29.9,31.5,,42.4,,,,,,,,,,,35.2,
O=C(CCC(=O)Nc1ccc(Cl)cc1)CC(=O)c1ccc(F)cc1,> 100,> 100,> 100,> 100,> 100,> 100,> 100,,,,,,,,,,,> 100,
CC(=O)N1CC2Nc3ccccc3C2CC1CO (stereo not drawn),,> 100,> 100,> 100,> 100,> 100,> 100,,,,,,,,,,,> 100,
Brc1ccc([I+]c2ccc(Br)cc2)cc1,,11.5,2.76,26.1,5.14,3.09,10.5,0.643,1.38,5.96,1.53,1.36,1.94,17,0.55,1.25,3.8,,
C(=C\c1csnn1)/c1cccnc1,,> 100,> 100,> 100,> 100,> 100,> 100,,,,,,,,,,,> 100,
N#Cc1ccccc1C#C/C=C\C#Cc1ccc(OCCCNC(=O)c2cc3ccccc3[nH]2)cc1,,39.6,39.7,35.4,> 100,44.6,,14.8,16.5,17,21.8,20.5,19,42.7,,14.7,45.2,,
O=c1ccccc2cccc(O)c12,,> 100,> 100,,> 100,,> 100,,,,,,,,,,,> 100,
COc1ccc(C(c2ccc(C(C)C)cc(=O)c2O)c2c(O)cc3oc(-c4ccccc4)cc(=O)c3c2O)cc1 (stereo not drawn),,,16.7,,22.2,,37.3,,,,,,,,,,,28.8,
CC(=O)OC1COC(S[As](C)C)C(OC(C)=O)C1OC(C)=O (stereo not drawn),,2.04,49.5,0.805,1.1,1.99,0.0245,0.17,14.7,0.102,< 0.0419,0.429,0.0643,0.358,,0.164,2.04,0.072,< 0.0158
O=C1CCCC/C1=C/C=C/c1ccccc1,,> 100,> 100,> 100,> 100,> 100,> 100,,,,,,,,,,,62.8,
O=c1/c(=C/c2ccc(Cl)cc2Cl)sc2nc3ccccc3n12,,> 100,> 100,> 100,> 100,> 100,,,,,,,,,,,,> 100,
CCOC(=O)/N=C(\N)SCc1ccccc1,> 100,> 100,> 100,> 100,> 100,> 100,> 100,,,,,,,,,,,> 100,
Cc1cc(NS(=O)(=O)c2ccc(NC(=O)c3cccc4c(N)c5ccccc5nc34)cc2)no1,,27.6,34,95.7,54,37.2,62.6,,,,,,,,,,,,
CCN(CC)CCOc1ccc(/C=C2\CC3C4CCC5=CC(=O)CC[C@]5(C)C4CC[C@]3(C)C2=O)cc1OC (stereo partly drawn),,4.45,22.7,> 100,3.96,> 100,5.03,1.85,4.03,0.701,2.08,9.01,1.87,4,1.79,2.92,13.9,,
O=c1cc(Cl)nc[nH]1,,> 100,> 100,> 100,> 100,> 100,> 100,,,,,,,,,,,> 100,
COc1ccc2[nH]cc(-c3nc(-c4cn(C)c5ccncc45)cs3)c2c1,,3.21,3.57,3.36,3.24,30.1,,1.77,1.79,1.8,1.75,15.8,1.71,3.22,,1.98,4.13,4.12,1.9
CCC[CH2][Sn]([CH2]CCC)([O]C(=O)c1cccc(F)c1)[O]C(=O)c1cccc(F)c1,,2.55,1.39,2.47,2.88,2.1,2.02,1.29,0.369,1.23,1.34,0.851,,,0.329,,,,
CC1(O)CC2C(CC1SCCO)C2(C)C (stereo not drawn),,> 100,,> 100,> 100,> 100,> 100,,,,,,,,,,,> 100,
